Experimental data from US20240228482A1, “COMPOUNDS, COMPOSITIONS AND METHODS OF TREATING CANCER” (HOTSPOT THERAPEUTICS, INC., priority 2021, published 2024).

Target: T1, CBL-B (Homo sapiens, UniProt Q13191)
T1 construct: GST
Test: CBL-B TR-FRET IC50 screening (E1/E2 ubiquitination, Biotin-Ubiquitin, Anti GST-Tb donor / Streptavidin-d2 acceptor)
Assay type: biochemical
Conditions: CBL-B 10 nM final; 11-point titration from 100 uM; binned A-F; read-out: CBL-B TR-FRET activity IC50

T1 sequence (Q13191 whole entry): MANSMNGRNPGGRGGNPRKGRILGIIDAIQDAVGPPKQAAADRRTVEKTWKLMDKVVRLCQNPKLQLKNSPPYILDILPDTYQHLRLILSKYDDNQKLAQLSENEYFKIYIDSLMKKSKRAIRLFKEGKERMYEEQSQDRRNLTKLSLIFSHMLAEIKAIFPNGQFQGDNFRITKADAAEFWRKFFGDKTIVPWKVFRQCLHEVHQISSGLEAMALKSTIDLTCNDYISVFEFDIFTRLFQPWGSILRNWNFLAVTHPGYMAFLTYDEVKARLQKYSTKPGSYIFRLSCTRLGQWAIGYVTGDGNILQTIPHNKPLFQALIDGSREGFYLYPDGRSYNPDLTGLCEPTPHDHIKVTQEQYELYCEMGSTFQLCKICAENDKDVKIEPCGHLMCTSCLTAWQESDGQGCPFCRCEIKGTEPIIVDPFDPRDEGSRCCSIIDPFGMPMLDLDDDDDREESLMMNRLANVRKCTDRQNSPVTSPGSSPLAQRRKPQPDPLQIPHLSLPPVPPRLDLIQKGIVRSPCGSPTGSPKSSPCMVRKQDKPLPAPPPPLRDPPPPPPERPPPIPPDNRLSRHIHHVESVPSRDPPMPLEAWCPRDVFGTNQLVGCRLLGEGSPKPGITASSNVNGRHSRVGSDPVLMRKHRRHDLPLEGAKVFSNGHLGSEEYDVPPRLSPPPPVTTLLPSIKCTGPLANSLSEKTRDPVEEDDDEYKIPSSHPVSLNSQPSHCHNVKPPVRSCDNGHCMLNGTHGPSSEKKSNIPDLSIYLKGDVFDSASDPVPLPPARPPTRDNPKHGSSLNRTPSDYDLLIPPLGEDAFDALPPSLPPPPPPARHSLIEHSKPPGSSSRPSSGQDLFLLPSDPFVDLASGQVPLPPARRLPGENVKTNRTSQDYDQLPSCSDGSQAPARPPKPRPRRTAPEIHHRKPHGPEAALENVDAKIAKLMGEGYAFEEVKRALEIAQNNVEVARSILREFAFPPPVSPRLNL

Compound | IC50 [nM]
Cn1cnnc1[C@]1(c2cccc(-n3cc4c(C(F)(F)F)cc(CN5CCC(F)CC5)cn4c3=O)c2)C[C@H](C)C1 (single isomer, unassigned) [Compound 237] | < 100
Cn1cnnc1CC1(c2cccc(-n3cc4c(C(F)(F)F)cc(C5CCN(C(=O)OC(C)(C)C)C5)cn4c3=O)c2)COC1 (centres unmarked) [Compound 65] | 301 to 1000
CO[C@H]1C[C@](c2cccc(-n3cc4c(C(F)(F)F)cc(CN5CCC[C@H](C)C5)cn4c3=O)c2)(c2nncn2C)C1 (single isomer, unassigned) [Compound 319] | < 100
C[C@@H](c1cc(C(F)(F)F)c2cn(-c3cccc(C4(Cc5nncn5C)COC4)c3)c(=O)n2c1)N1CCC(C)(F)CC1 [Compound 41] | < 100
C[C@H]1CCCN1Cc1cc(C(F)(F)F)c2cn(-c3cccc([C@H](c4nncn4C)C4CCC4)c3)c(=O)n2c1 [Compound 380_P2] | < 100
[2H]C([2H])([2H])n1cnnc1CC1(c2cccc(-n3cc4c(C(F)(F)F)cc([C@@H](C)N5CCC[C@H](C)C5)cn4c3=O)c2)COC1 [Compound 278_P2] | < 100
Cn1cnnc1CC1CCc2c1cccc2-n1cc2c(C(F)(F)F)cccn2c1=O (centres unmarked) [Compound 4] | > 10000
C[C@@H]1CN(Cc2cc(C(F)(F)F)c3cn(-c4cccc(C5(Cc6nncn6C)COC5)c4)c(=O)n3c2)C[C@@H](C)O1 [Compound 201] | < 100
Cn1cnnc1CC1(c2cccc(-n3cc4c(C(F)F)cccn4c3=O)c2)COC1 [Compound 95] | 301 to 1000
Cn1cnnc1[C@@H](c1cccc(-n2cc3c(C(F)(F)F)cc(CNCC4COC4)cn3c2=O)c1)C1CCC1 [Compound 322] | < 100
C[C@H]1CCCN(Cc2cc(C(F)(F)F)c3cn(-c4cc([C@@H](c5nncn5C)C5CCC5)cc(C(F)(F)F)c4)c(=O)n3c2)C1 (single isomer, unassigned) [Compound 223] | < 100
[2H]C([2H])([2H])n1cnnc1C1(c2cccc(-n3cc4c(C(F)(F)F)cc(CN5CCC[C@H](C)C5)cn4c3=O)c2)CC(C)C1 (single isomer, unassigned) [Compound 189] | < 100
C[C@@H]1CN(Cc2cc(C(F)(F)F)c3cn(-c4cccc(C5(Cc6nncn6C)COC5)c4)c(=O)n3c2)CCC1(F)F [Compound 72] | 301 to 1000
C[C@@H]1CN(Cc2cc(C(F)(F)F)c3cn(-c4cccc(C5(Cc6nncn6C)COC5)c4)c(=O)n3c2)CCO1 [Compound 12] | < 100
Cc1cn(CCO)nc1[C@@H](c1cccc(-n2cc3c(C(F)(F)F)cc(CN4CCC[C@H](C)C4)cn3c2=O)c1)C1CCC1 (single isomer, unassigned) [Compound 360] | > 10000
Cn1cnnc1N(c1cccc(-n2cc3c(C(F)(F)F)cccn3c2=O)c1)C1COC1 [Compound 211] | 1000 to 3000

Compound | IC50 [nM]
C[C@H]1CCCN(Cc2cc(C(F)(F)F)c3cn(-c4cccc([C@H](c5nncs5)C5CCC5)c4)c(=O)n3c2)C1 (single isomer, unassigned) [Compound 202] | < 100
Cn1cnnc1[C@@H](c1cccc(-n2cc3c(C(F)(F)F)cc(CN4CCC[C@@H](C(F)(F)F)C4)cn3c2=O)c1)C1CCC1 (single isomer, unassigned) [Compound 272] | < 100
C=C(C)C[C@H](c1cccc(-n2cc3c(C(F)(F)F)cc(CN4CCC[C@H](C)C4)cn3c2=O)c1)c1nncn1C [Compound 69] | < 100
CC1CN(Cc2cc(C(F)(F)F)c3cn(-c4cccc([C@]5(Cc6nncn6C)C[C@@H](C#N)C5)c4)c(=O)n3c2)CCC1(F)F (single isomer, unassigned) [Compound 99] | < 100
C[C@@H]1CN(Cc2cc(C(F)(F)F)c3cn(-c4cccc([C@]5(Cc6nncn6C)C[C@H](C#N)C5)c4)c(=O)n3c2)CCC1(F)F (single isomer, unassigned) [Compound 204] | < 100
Cc1sc(C#N)nc1[C@H](c1cccc(-n2cc3c(C(F)(F)F)cc(CN4CCC[C@H](C)C4)cn3c2=O)c1)C1CCC1 (single isomer, unassigned) [Compound 371] | > 10000
O=c1n(-c2cccc(C3(Cc4nnc5n4CCC5)COC3)c2)cc2c(C(F)(F)F)cccn12 [Compound 210] | > 10000
Cn1cnnc1[C@@H](F)C1(c2cccc(-n3cc4c(C(F)(F)F)cc(CN5CCC(F)CC5)cn4c3=O)c2)COC1 [Compound 44] | < 100
Cn1cnnc1CC1(n2cc(-n3cc4c(C(F)(F)F)cccn4c3=O)cn2)COC1 [Compound 146] | > 10000
Cn1cnnc1CC1(c2cccc(-n3cc4c(C(F)(F)F)cccn4c3=O)c2)CNC1 [Compound 144] | > 10000
C[C@H]1CCCN(Cc2cc(C(F)(F)F)c3cn(-c4cccc([C@@H](c5nccs5)C5CCC5)c4)c(=O)n3c2)C1 (single isomer, unassigned) [Compound 305] | > 10000
Cn1cnnc1CC1(c2cccc(-n3cc4ccccn4c3=O)c2)COC1 [Compound 71] | 100 to 300
Cn1cnnc1CC1(c2cccc(-n3cc4c(C(F)(F)F)cc(C#CCN5CCCC5)cn4c3=O)c2)COC1 [Compound 89] | 100 to 300
CO[C@H]1C[C@@](c2cccc(-n3cc4c(C(F)(F)F)cc(CN5CCC[C@H](C)C5)cn4c3=O)c2)(c2nncn2C)C1 [Compound 318] | < 100
Cn1cnnc1[C@@H](c1cccc(-n2cc3c(C(F)(F)F)cc(-c4nncs4)cn3c2=O)c1)C1CCC1 [Compound 331] | 301 to 1000
Cn1cnnc1C(F)(F)[C@](C)(F)c1cccc(-n2cc3c(C(F)(F)F)cc(CN4CCC(F)(F)C4)cn3c2=O)c1 [Compound 35] | 3000 to 10000

Same assay, conditions: Updated Activity, second part of Table 2 (head 'Patent Cmpd No / Updated Activity'); same CBL-B TR-FRET IC50 bins A-F

Compound | IC50 [nM]
C[C@H]1CCCN(Cc2cc(C(F)(F)F)c3cn(-c4cccc(C5(c6nncn6C)CC(C)(C)C5)c4)c(=O)n3c2)C1 [Compound 433] | < 100

Same assay, conditions: second part of Table 2 (head 'Patent Cmpd No / Updated Activity'); same CBL-B TR-FRET IC50 bins A-F; read-out: Updated Activity

Compound | IC50 [nM]
COC1CN([C@@H](c2cccc(-n3cc4c(C(F)(F)F)cc(CN5CCC[C@H](C)C5)cn4c3=O)c2)c2nncn2C)C1 (single isomer, unassigned) [Compound 388] | > 10000
CO[C@H]1C[C@@](c2cccc(-n3cc4c(C(F)(F)F)cc([C@H](C)N5CCC(F)CC5)cn4c3=O)c2)(c2nncn2C)C1 (single isomer, unassigned) [Compound 603] | < 100
CO[C@H]1C[C@@](c2cccc(-n3cc4c(C(F)(F)F)cc([C@@H](C)N5CC[C@H](F)C5)cn4c3=O)c2)(c2nncn2C)C1 (single isomer, unassigned) [Compound 615] | 301 to 1000
Cn1cnnc1[C@@H](c1cccc(-n2cc3c(C(F)(F)F)cc(CN4CCCOC4=O)cn3c2=O)c1)C1CCC1 [Compound 467] | < 100
CO[C@H]1C[C@@H]([C@@H](c2cccc(-n3cc4c(C(F)(F)F)cc(CN5CCC[C@H](C)C5)cn4c3=O)c2)c2nncn2C)C1 (single isomer, unassigned) [Compound 551] | 301 to 1000
Cn1cnnc1[C@@H](c1cccc(-n2cc3c(C(F)(F)F)cc(CN4CC(C)(C#N)C4)cn3c2=O)c1)C1CCC1 [Compound 564] | < 100
C[C@H]1CCCN(Cc2cc(C(F)(F)F)c3cn(-c4cc(F)cc([C@H](c5nncn5C)C5COC5)c4)c(=O)n3c2)C1 (single isomer, unassigned) [Compound 476] | 301 to 1000
CC(C)n1cnnc1[C@H](c1cccc(-n2cc3c(C(F)(F)F)cc(CN4CCC[C@H](C)C4)cn3c2=O)c1)C1CCC1 (single isomer, unassigned) [Compound 428] | > 10000
C[C@H]1CCCN([C@@H](C)c2cc(C(F)(F)F)c3cn(-c4cccc(C5(c6nncn6C)CCC5)c4)c(=O)n3c2)C1 [Compound 506_P2] | < 100
Cn1cnnc1[C@H](c1cc(-c2ccns2)cc(-n2cc3c(C(F)(F)F)cccn3c2=O)c1)C1CCC1 (single isomer, unassigned) [Compound 458] | 3000 to 10000
Cn1cnnc1[C@H](c1cc(-c2cncnc2)cc(-n2cc3c(C(F)(F)F)cccn3c2=O)c1)C1CCC1 (single isomer, unassigned) [Compound 447] | > 10000
Cn1cnnc1[C@H](c1cc(C#N)cc(-n2cc3c(C(F)(F)F)cccn3c2=O)c1)C1CCC1 (single isomer, unassigned) [Compound 452] | > 10000
Cn1cnnc1C1(c2cccc(-n3cc4c(C(F)(F)F)cc(CN5CCC[C@H](C(F)(F)F)C5)cn4c3=O)c2)CC2(CC2)C1 (single isomer, unassigned) [Compound 480] | < 100
C[C@H]1CCCN(Cc2cc(C(F)(F)F)c3cn(-c4cccc(C(=C5CCC5)c5nncn5C)c4)c(=O)n3c2)C1 [Compound 466] | < 100
COC(=O)N1CC[C@@H](c2cc(C(F)(F)F)c3cn(-c4cccc([C@H](c5nncn5C)C5CCC5)c4)c(=O)n3c2)C1 (single isomer, unassigned) [Compound 409] | < 100
CN1CCN(Cc2cc(C(F)(F)F)c3cn(-c4cccc([C@H](c5nncn5C)C5CCC5)c4)c(=O)n3c2)S1(=O)=O [Compound 608] | < 100
C[C@H]1CCCN(Cc2cc(C(F)(F)F)c3cn(-c4cccc([C@H](c5nncn5C)C5CNC5)c4)c(=O)n3c2)C1 [Compound 403] | > 10000
COCC(COC)[C@@H](c1cccc(-n2cc3c(C(F)(F)F)cc(CN4CCC[C@H](C)C4)cn3c2=O)c1)c1nncn1C (single isomer, unassigned) [Compound 411] | > 10000
C[C@H]1CCCN(Cc2cc(C(F)(F)F)c3cn(-c4cncc([C@@H](c5nncn5C)C5CCC5)c4)c(=O)n3c2)C1 [Compound 628_P1] | < 100
Cn1cnnc1[C@H](c1cc(-n2cc3c(C(F)(F)F)cccn3c2=O)cs1)C1CCC1 [Compound 403_P2] | 301 to 1000
CNC(=O)CCc1cc([C@H](c2nncn2C)C2CCC2)cc(-n2cc3c(C(F)(F)F)cccn3c2=O)c1 (single isomer, unassigned) [Compound 559] | > 10000
[2H]C([2H])(c1cc(C(F)(F)F)c2cn(-c3cccc([C@H](c4nncn4C)C4CCC4)c3)c(=O)n2c1)N1CCC[C@@H](C(F)(F)F)C1 [Compound 597_P2] | < 100
[2H]C([2H])(c1cc(C(F)(F)F)c2cn(-c3cccc([C@H](c4nncn4C)C4CCC4)c3)c(=O)n2c1)N1CCC[C@H](C(F)(F)F)C1 [Compound 597_P1] | 3000 to 10000
